Where two headings read alike, the source gives them in different places.

Data set [1] is described as follows: Satellite terminal tissue sampling after i.v. dosing. It is filed as in vivo. As to conditions: n = 3 mice; for concentration at 0.5 h / concentration at 4 h: CD-1, mouse, iv, 1 mg kg^−1; for concentration at 0.5 h: 0.5 h post i.v. dosing. The protocol: Finally, to gain an understanding of the propensity for SSAs 3 and 5 to diffuse from the mouse circulatory system into the mouse tissues, satellite terminal tissue sampling was also performed.

A short description of data set [2]: Mouse i.v. blood pharmacokinetic study. The settings on record: for enterohepatic recirculation: blood concentration-time profile, in words; for clearance: female, CD-1, mouse, 1 mg/kg, read-out: Cl blood; for clearance / Vd: SSA 3 derived based on AUC0–7h; for Cmax: 2% DMSO/98% H2O. It counts as in vivo, female CD-1 mice. The protocol: Within these studies SSAs 3 and 5 were dosed at 1 mg kg^−1, to female CD-1 mice (n = 9 per SSA) via an intravenous tail vein bolus dose formulation as solutions in 2% DMSO/98% water. Blood taken from the mouse tail vein was extracted by protein precipitation and SSA concentration calculated. The results of these studies are shown in Fig. 12 and Table 4. page 8: For the purpose of fu and SSA-3 PK determination, samples were analysed using a Waters I-Class ultra-high-performance liquid chromatography (UHPLC) system coupled to a Waters Xevo TQ-XS mass spectrometer. Separation of analytes was achieved using an Accucore Vanquish C18+ column (1.5 µm, 50 x 2.1 mm) at a temperature of 40°C and a binary mobile phase gradient at a flow rate of 0.4 mL/min. Initial LC conditions comprised 66% solvent A (0.1% formic acid + 5 mM ammonium acetate in water), 33% solvent B (0.1% formic acid + 5 mM ammonium acetate in methanol); this was ramped to 63% B at 1.8 min and 95% B at 1.9 min, held for 0.5 min and then immediately returned to initial conditions and held for the remaining 0.5 min of the method. Sample analysis was by electrospray ionisation combined with multiple reaction monitoring in negative ion mode. The capillary voltage was 0.8 kV, desolvation gas was 600°C. For the purpose of apparent permeability determination, samples were analysed using a Waters I- Class ultra-high-performance liquid chromatography (UHPLC) system coupled to a Waters Vion mass spectrometer (Waters, Elstree, UK). Separation of analytes was achieved used an Accucore Vanquish C18+ column (1.5 µm, 50 x 2.1 mm) at a temperature of 40°C and a binary mobile phase gradient at a flow rate of 0.4 mL/min. Initial LC conditions for SSA 1-4 comprised 66% solvent A (0.1% formic acid + 5 mM ammonium acetate in water), 33% solvent B (0.1% formic acid + 5 mM ammonium acetate in methanol); this was ramped to 63% B at 1.8 min and 95% B at 1.9 min, held for 0.5 min and then immediately returned to initial conditions and held for the remaining 0.5 min of the method. Initial LC conditions for SSA 5-10 comprised 54% solvent A (0.1% formic acid + 5 mM ammonium acetate in water), 46% solvent B (0.1% formic acid + 5 mM ammonium acetate in methanol); this was ramped to 67% B at 1.8 min and 95% B at 1.9 min, held for 0.5 min and then immediately returned to initial conditions and held for the remaining 0.5 min of the method. Sample analysis was by electrospray ionisation in negative ion mode. The capillary voltage was 2.5 kV, desolvation gas was 600°C. For the purpose of PK determination of SSA 5, samples were analysed using a Waters I-Class ultra- high-performance liquid chromatography (UHPLC) system coupled to a Waters Xevo TQ-XS mass spectrometer. Separation of analytes was achieved using an Accucore Vanquish C18+ column (1.5 µm, 50 x 2.1 mm) at a temperature of 40°C and a binary mobile phase gradient at a flow rate of 0.4 mL/min. Initial LC conditions comprised 54% solvent A (0.1% formic acid + 5 mM ammonium acetate in water), 46% solvent B (0.1% formic acid + 5 mM ammonium acetate in methanol); this was ramped to 67% B at 1.8 min and 95% B at 1.9 min, held for 0.5 min and then immediately returned to initial conditions and held for the remaining 0.5 min of the method. Sample analysis was by electrospray ionisation combined with multiple reaction monitoring in negative ion mode. The capillary voltage was 0.8 kV, desolvation gas was 600°C. Mean blood concentration-time profile: Within these studies SSAs 3 and 5 were dosed at 1 mg/kg, to female CD-1 mice (n=9 per SSA) via an intravenous tail vein bolus dose formulation as solutions in 2 % DMSO/98 % water. Blood taken from the mouse tail vein was extracted by protein precipitation. SSA concentrations were calculated through UPLC-MS/MS techniques, with tolbutamide as the internal standard. The assay met the acceptance criteria with >7 calibration standards within ± 20% of nominal concentration. The lower limit of quantitation was 2 ng/mL for both compounds. […]

On the set-up of data set [3]: method as in PMID 29568426. As to conditions: surface tension; 19 : 1 H2O : EtOH solution at 298 K; unit printed only in Figs S37-S40; cited from earlier work.
[4] abbreviates: liver, read-out: Concentration of SSA in liver.
Setting [5] is: liver, 4.0 h post i.v. dosing, read-out: Concentration of SSA in liver.
The mark [6] stands for this setting: lung, read-out: Concentration of SSA in lung.
[7] abbreviates: muscle, read-out: Concentration of SSA in muscle.
[8] abbreviates: blood, iv, i.v. 1 mg kg^−1, female CD-1 mice.
The mark [9] stands for this setting: i.v. 1 mg kg^−1, female CD-1 mice.
The mark [10] stands for this setting: mouse, blood, iv, i.v. 1 mg kg^−1, female CD-1 mice.
Setting [11] is: mouse, iv, blood, i.v. 1 mg kg^−1, female CD-1 mice.

Broadly, the Vd is a proportionality between amount in the body and measured concentration, not a real space. Low readings indicate little distribution into tissue, high ones wide distribution into tissue. One may read the Cmax as the highest concentration seen after dosing. One may read the AUC(0-t) as the area under the concentration-time curve up to a stated or last time point. High values mean more exposure, low ones less exposure. The term Tmax denotes the time from dosing to the highest level. As for `O=C(NCS(=O)(=O)O)Nc1ccc(C(F)(F)F)cc1` [SSA 3], in data set [1] (4.0 h post i.v. dosing), the “Concentration of SSA in muscle” value is “BLQ”. The figures for the concentration at 0.5 h in data set [1] (setting [4]), in data set [1] (setting [6]) and in data set [1] (setting [7]) were 1230 nM, 86 nM and 86 nM, respectively. Further, the concentration at 4 h was determined as 206 nM in data set [1] (setting [5]) and 18 nM in data set [1] (lung, 4.0 h post i.v. dosing, read-out: Concentration of SSA in lung). Besides, the “Blood concentration of SSA” value in data set [2] (0.5 h post i.v. dosing) is given as 344 nM; in data set [2] (4.0 h post i.v. dosing), 99 nM. The enterohepatic recirculation result in data set [2] (i.v. 1 mg kg^−1) is “undergoing enterohepatic recirculation”. The clearance in data set [2] (setting [8]) turned out to be 25 mL/min/kg. Besides, the “Cl blood as % liver blood flow (LBF)” value in data set [2] (setting [9]) worked out at 28 % LBF. The Vd in data set [2] (setting [10]) worked out at 0.8 L/kg. Also, in data set [2] (setting [11]), the Cmax was found to be 8090 nM. This compound returned an AUC(0-t) in data set [2] (setting [11]) of 2.28 µM·h. In data set [2] (setting [11]), the time of peak concentration (Tmax) amounted to 4.98 min.

As a reminder, the half-life is the time in which the quantity being followed falls by half. Lower therefore signals fast loss. Usually AUC(0-inf) stands for the area under the concentration-time curve extrapolated to infinity. A lower AUC(0-inf) goes with less exposure. Take `O=C(NCS(=O)(=O)O)Nc1ccccc1-c1nc2ccccc2s1` [SSA 5]: in data set [1] (4.0 h post i.v. dosing), the “Concentration of SSA in lung” value is recorded as “BLQ” and the “Concentration of SSA in muscle” value is given as “BLQ”. Moreover, the concentration at 0.5 h in data set [1] (setting [4]) was 2200 nM. Besides, in data set [1] (setting [5]), the concentration at 4 h stood at 429 nM. Further, in data set [1] (setting [6]), the concentration at 0.5 h came out at 153 nM. For the same compound, in data set [1] (setting [7]), the concentration at 0.5 h came out at 172 nM. Further, the CMC in data set [3] is 9.5 (ref. [38]) mM. Further, the “Blood concentration of SSA” value in data set [2] (0.5 h post i.v. dosing) came to 643 nM. In addition, in data set [2] (4.0 h post i.v. dosing), the “Blood concentration of SSA” value is listed as 11 nM. In data set [2] (i.v. 1 mg kg^−1), the enterohepatic recirculation result is on record as “did not show any evidence of enterohepatic recirculation”. Moreover, the clearance in data set [2] (setting [8]) was about 31 mL/min/kg. Also, the “Cl blood as % liver blood flow (LBF)” value in data set [2] (setting [9]) was found to be 34 % LBF. The compound further gave a half-life in data set [2] (mouse, blood, iv, elimination half-life, i.v. 1 mg kg^−1, female CD-1 mice) of 42 min. In addition, the Vd in data set [2] (setting [10]) was determined as 0.9 L/kg. Moreover, in data set [2] (setting [11]), the concentration peaked (Cmax) at 4050 nM, the AUC(0-inf) worked out at 1.46 µM·h, the area under the curve AUC(0-t) was 1.45 µM·h and the Tmax stood at 4.98 min.

With `Cc1ccc2nc(-c3ccc(NC(=O)NCS(=O)(=O)O)cc3)sc2c1` [SSA 6], the CMC in data set [3] was 0.5 (ref. [38]) mM.

Values taken from publication PMC9400670, “Establishing the selective phospholipid membrane coordination, permeation and lysis properties for a series of ‘druggable’ supramolecular self-associating antimicrobial amphiphiles” (Chemical Science, 2022).
